Reference: patent US20230270114A1, “FUNGICIDAL COMPOSITIONS” (SYNGENTA CROP PROTECTION AG, priority 2020, published 2023)
Like-named read-outs stand apart in the source and are kept apart here.

Tests used:
Alternaria solani = experiment: Example A1: Alternaria solani / tomato / leaf disc (early blight); type: in vivo; settings: foliar, tomato leaf disks inoculated 2 days after application, compared to untreated control
[1] = tested on: Glomerella lagenarium (Colletotrichum lagenarium); experiment: Example A3: Glomerella lagenarium (Colletotrichum lagenarium) / liquid culture (anthracnose); type: cell-based; settings: Colletotrichum orbiculare; read-out: control of Glomerella lagenarium
[2] = tested on: Monographella nivalis (Microdochium nivale); experiment: Example A6: Monographella nivalis (Microdochium nivale) / liquid culture (foot rot cereals); type: cell-based; settings: read-out: control of Monographella nivalis
[3] = tested on: Mycosphaerella arachidis (Cercospora arachidicola); experiment: Example A7: Mycosphaerella arachidis (Cercospora arachidicola) / liquid culture (early leaf spot); type: cell-based; settings: read-out: control of Mycosphaerella arachidis
[4] = tested on: Puccinia recondita f. sp. tritici; type: in vivo; settings: foliar, 24 h, wheat leaf disc curative, applied 1 day after inoculation, compared to untreated control
[5] = tested on: Puccinia recondita f. sp. tritici; type: in vivo; settings: foliar, wheat leaf disc preventative, inoculated 1 day after application, compared to untreated control
[6] = tested on: Magnaporthe grisea (Pyricularia oryzae); experiment: whole plant or invertebrate; type: in vivo; settings: foliar, read-out: control of Magnaporthe grisea
[7] = tested on: Mycosphaerella graminicola (Septoria tritici); experiment: Example A14: Mycosphaerella graminicola (Septoria tritici) / liquid culture (Septoria blotch); type: cell-based; settings: Zymoseptoria tritici; read-out: control of Mycosphaerella graminicola
Pyrenophora teres = experiment: Example A12: Pyrenophora teres / barley / leaf disc preventative (net blotch); type: in vivo; settings: foliar, inoculated 2 days after application, compared to untreated control
Phakopsora pachyrhizi = experiment: Example A8: Phakopsora pachyrhizi / soybean / preventative (soybean rust); type: in vivo; settings: foliar, soybean leaf disks preventative, inoculated one day after application, compared to untreated control

Cc1sc(N(C(=O)CC(F)(F)F)c2cc(F)nc(F)c2)nc1C(=O)NC1CCC1(C)C (centres unmarked) [X.21, 2-[(2,6-difluoro-4-pyridyl)-(3,3,3-trifluoropropanoyl)amino]-N-(2,2-dimethylcyclobutyl)-5-methyl-thiazole-4-carboxamide]
≥ 80%: pest or weed control at 200 ppm (Alternaria solani) | inhibition of growth at 20 ppm [1] | inhibition of growth at 20 ppm [2] | inhibition of growth at 20 ppm [3] | pest or weed control at 200 ppm [4] | pest or weed control at 200 ppm [5] | pest or weed control at 200 ppm [6] | inhibition of growth at 20 ppm [7]

COCC(=O)N(c1cc(F)nc(F)c1)c1nc(C(=O)NC2CCC2)c(C)s1 [X.12, N-cyclobutyl-2-[(2,6-difluoro-4-pyridyl)-(2-methoxyacetyl)amino]-5-methyl-thiazole-4-carboxamide]
≥ 80%: inhibition of growth at 20 ppm [2] | pest or weed control at 200 ppm [5] | pest or weed control at 200 ppm [6] | pest or weed control at 200 ppm (Pyrenophora teres)

COCCOC(=O)N(c1cc(F)nc(F)c1)c1nc(C(=O)NC2CCC2(C)C)c(C)s1 (centres unmarked) [X.28, 2-methoxyethyl N-(2,6-difluoro-4-pyridyl)-N-[4-[(2,2-dimethylcyclobutyl)carbamoyl]-5-methyl-thiazol-2-yl]carbamate]
≥ 80%: inhibition of growth at 20 ppm [2] | pest or weed control at 200 ppm [4] | pest or weed control at 200 ppm [5] | pest or weed control at 200 ppm [6]

COC(=O)OC(C)C(=O)N(c1cc(F)nc(F)c1)c1nc(C(=O)NC2CCC23CCCC3)c(C)s1 (centres unmarked) [X.03, [2-[(2,6-difluoro-4-pyridyl)-[5-methyl-4-(spiro[3.4]octan-3-ylcarbamoyl)thiazol-2-yl]amino]-1-methyl-2-oxo-ethyl] methyl carbonate]
≥ 80%: inhibition of growth at 20 ppm [1] | inhibition of growth at 20 ppm [2] | pest or weed control at 200 ppm [5] | pest or weed control at 200 ppm [6] | pest or weed control at 200 ppm (Pyrenophora teres) | inhibition of growth at 20 ppm [7]

CC(=O)OCC(=O)N(c1cc(F)nc(F)c1)c1nc(C(=O)NC2CCC2(C)C)c(C)s1 (centres unmarked) [X.08, [2-[(2,6-difluoro-4-pyridyl)-[4-[(2,2-dimethylcyclobutyl)carbamoyl]-5-methyl-thiazol-2-yl]amino]-2-oxo-ethyl] acetate]
≥ 80%: pest or weed control at 200 ppm (Alternaria solani) | inhibition of growth at 20 ppm [1] | inhibition of growth at 20 ppm [2] | inhibition of growth at 20 ppm [3] | pest or weed control at 200 ppm (Phakopsora pachyrhizi) | pest or weed control at 200 ppm [4] | pest or weed control at 200 ppm [5] | pest or weed control at 200 ppm [6] | pest or weed control at 200 ppm (Pyrenophora teres) | inhibition of growth at 20 ppm [7]

COc1sc(N(C(C)=O)c2cc(F)nc(F)c2)nc1C(=O)NC1CCC12CCCC2 (centres unmarked) [X.10, 2-[acetyl-(2,6-difluoro-4-pyridyl)amino]-5-methoxy-N-spiro[3.4]octan-3-yl-thiazole-4-carboxamide]
≥ 80%: pest or weed control at 200 ppm [6] | pest or weed control at 200 ppm (Pyrenophora teres)

CC(=O)OC(C)C(=O)N(c1cc(F)nc(F)c1)c1nc(C(=O)NC2CCC23CCCC3)c(C)s1 (centres unmarked) [X.01, [2-[(2,6-difluoro-4-pyridyl)-[5-methyl-4-(spiro[3.4]octan-3-ylcarbamoyl)thiazol-2-yl]amino]-1-methyl-2-oxo-ethyl] acetate]
≥ 80%: pest or weed control at 200 ppm (Alternaria solani) | inhibition of growth at 20 ppm [1] | inhibition of growth at 20 ppm [2] | pest or weed control at 200 ppm [5] | pest or weed control at 200 ppm [6] | pest or weed control at 200 ppm (Pyrenophora teres) | inhibition of growth at 20 ppm [7]

CCOC(=O)OC(C)C(=O)N(c1cc(F)nc(F)c1)c1nc(C(=O)NC2CCC2)c(C)s1 (centres unmarked) [X.02, [2-[[4-(cyclobutylcarbamoyl)-5-methyl-thiazol-2-yl]-(2,6-difluoro-4-pyridyl)amino]-1-methyl-2-oxo-ethyl] ethyl carbonate]
≥ 80%: pest or weed control at 200 ppm [5] | pest or weed control at 200 ppm [6]

CC(=O)N(c1cc(F)nc(F)c1)c1nc(C(=O)NC2CCC2)c(C)s1 [X.13, 2-[acetyl-(2,6-difluoro-4-pyridyl)amino]-N-cyclobutyl-5-methyl-thiazole-4-carboxamide]
≥ 80%: pest or weed control at 200 ppm [5] | pest or weed control at 200 ppm [6]

CCOC(=O)OC(C)C(=O)N(c1cc(F)nc(F)c1)c1nc(C(=O)NC2CCC23CCCC3)c(C)s1 (centres unmarked) [X.04, [2-[(2,6-difluoro-4-pyridyl)-[5-methyl-4-(spiro[3.4]octan-3-ylcarbamoyl)thiazol-2-yl]amino]-1-methyl-2-oxo-ethyl] ethyl carbonate]
≥ 80%: pest or weed control at 200 ppm (Alternaria solani) | inhibition of growth at 20 ppm [1] | inhibition of growth at 20 ppm [2] | inhibition of growth at 20 ppm [3] | pest or weed control at 200 ppm [5] | pest or weed control at 200 ppm [6] | pest or weed control at 200 ppm (Pyrenophora teres) | inhibition of growth at 20 ppm [7]

COC(C)C(=O)N(c1cc(F)nc(F)c1)c1nc(C(=O)NC2CCC2)c(C)s1 (centres unmarked) [X.07, N-cyclobutyl-2-[(2,6-difluoro-4-pyridyl)-(2-methoxypropanoyl)amino]-5-methylthiazole-4-carboxamide]
≥ 80%: pest or weed control at 200 ppm (Phakopsora pachyrhizi) | pest or weed control at 200 ppm [5] | pest or weed control at 200 ppm [6]

Cc1sc(N(C(=O)C(C)O)c2cc(F)nc(F)c2)nc1C(=O)NC1CCC12CCCC2 (centres unmarked) [X.05, 2-[(2,6-difluoro-4-pyridyl)-(2-hydroxypropanoyl)amino]-5-methyl-N-spiro[3.4]octan-3-yl-thiazole-4-carboxamide]
≥ 80%: inhibition of growth at 20 ppm [1] | inhibition of growth at 20 ppm [2] | pest or weed control at 200 ppm [5] | pest or weed control at 200 ppm [6] | inhibition of growth at 20 ppm [7]

COC(=O)N(c1cc(F)nc(F)c1)c1nc(C(=O)NC2CCC2(C)C)c(C)s1 (centres unmarked) [X.32, methyl N-(2,6-difluoro-4-pyridyl)-N-[4-[(2,2-dimethylcyclobutyl)carbamoyl]-5-methyl-thiazol-2-yl]carbamate]
≥ 80%: pest or weed control at 200 ppm [6]

CC(=O)N(c1cc(F)nc(F)c1)c1nc(C(=O)NC2CCC23CCCC3)c(C)s1 (centres unmarked) [X.37, 2-[acetyl-(2,6-difluoro-4-pyridyl)amino]-5-methyl-N-spiro[3.4] octan-3-yl-thiazole-4-carboxamide]
≥ 80%: pest or weed control at 200 ppm [6] | pest or weed control at 200 ppm (Pyrenophora teres)

COC(=O)CC(=O)N(c1cc(F)nc(F)c1)c1nc(C(=O)NC2CCC2(C)C)c(C)s1 (centres unmarked) [X.18, methyl 3-[(2,6-difluoro-4-pyridyl)-[4-[(2,2-dimethylcyclobutyl)carbamoyl]-5-methyl-thiazol-2-yl]amino]-3-oxo-propanoate]
≥ 80%: pest or weed control at 200 ppm (Alternaria solani) | inhibition of growth at 20 ppm [1] | inhibition of growth at 20 ppm [2] | inhibition of growth at 20 ppm [3] | pest or weed control at 200 ppm [4] | pest or weed control at 200 ppm [5] | pest or weed control at 200 ppm [6] | pest or weed control at 200 ppm (Pyrenophora teres) | inhibition of growth at 20 ppm [7]

Cc1sc(N(C(=O)c2ccco2)c2cc(F)nc(F)c2)nc1C(=O)NC1CCC1(C)C (centres unmarked) [X.19, 2-[(2,6-difluoro-4-pyridyl)-(furan-2-carbonyl)amino]-N-(2,2-dimethylcyclobutyl)-5-methyl-thiazole-4-carboxamide]
≥ 80%: pest or weed control at 200 ppm [5] | pest or weed control at 200 ppm [6]

Cc1sc(N(C(=O)c2cccs2)c2cc(F)nc(F)c2)nc1C(=O)NC1CCC1(C)C (centres unmarked) [X.31, 2-[(2,6-difluoro-4-pyridyl)-(thiophene-2-carbonyl)amino]-N-(2,2-dimethylcyclobutyl)-5-methyl-thiazole-4-carboxamide]
≥ 80%: inhibition of growth at 20 ppm [2] | pest or weed control at 200 ppm [6]

CCN(CC)C(=O)N(c1cc(F)nc(F)c1)c1nc(C(=O)NC2CCC2(C)C)c(C)s1 (centres unmarked) [X.16, 2-[diethylcarbamoyl-(2,6-difluoro-4-pyridyl)amino]-N-(2,2-dimethylcyclobutyl)-5-methyl-thiazole-4-carboxamide]
≥ 80%: inhibition of growth at 20 ppm [1] | inhibition of growth at 20 ppm [2] | pest or weed control at 200 ppm [6]

COC(=O)CCC(=O)N(c1cc(F)nc(F)c1)c1nc(C(=O)NC2CCC2(C)C)c(C)s1 (centres unmarked) [X.23, methyl 4-[(2,6-difluoro-4-pyridyl)-[4-[(2,2-dimethylcyclobutyl)carbamoyl]-5-methyl-thiazol-2-yl]amino]-4-oxo-butanoate]
≥ 80%: pest or weed control at 200 ppm (Alternaria solani) | inhibition of growth at 20 ppm [1] | inhibition of growth at 20 ppm [2] | pest or weed control at 200 ppm [4] | pest or weed control at 200 ppm [5] | pest or weed control at 200 ppm [6] | pest or weed control at 200 ppm (Pyrenophora teres)

Cc1sc(N(C(=O)Oc2ccccc2)c2cc(F)nc(F)c2)nc1C(=O)NC1CCC1(C)C (centres unmarked) [X.26, phenyl N-(2,6-difluoro-4-pyridyl)-N-[4-[(2,2-dimethylcyclobutyl)carbamoyl]-5-methyl-thiazol-2-yl]carbamate]
≥ 80%: inhibition of growth at 20 ppm [2] | pest or weed control at 200 ppm [6]

Cc1sc(N(C(=O)Cc2ccccc2)c2cc(F)nc(F)c2)nc1C(=O)NC1CCC1(C)C (centres unmarked) [X.09, 2-[(2,6-difluoro-4-pyridyl)-(2-phenylacetyl)amino]-N-(2,2-dimethylcyclobutyl)-5-methyl-thiazole-4-carboxamide]
≥ 80%: pest or weed control at 200 ppm (Alternaria solani) | inhibition of growth at 20 ppm [1] | inhibition of growth at 20 ppm [2] | pest or weed control at 200 ppm [5] | pest or weed control at 200 ppm [6] | inhibition of growth at 20 ppm [7]
